Patent US20200261398A1, “METHOD FOR FIRST-LINE TREATMENT OF ROSACEA” (Sol-Gel Technologies Ltd., priority 2019, published 2020)

Legend:
[1] = test system: rosacea; settings: BPO as the sole active agent (Gul 2008); cited from earlier work
[2] = test system: patients afflicted with papulopustular rosacea; assay: Inflammatory lesion (papules, pustules) count, 12-week vehicle-controlled study of E-BPO 5% cream; format: in vivo, human
Protocol: (§1) A multi-center, double-blind, randomized, vehicle-controlled, dose-range study of encapsulated 5% benzoyl peroxide (E-BPO) Cream and vehicle cream was performed to assess the efficacy and safety of E-BPO compared to vehicle. Study duration was 12 weeks and included approximately 350 male and female patients afflicted with papulopustular rosacea. Patients were at least 18 years of age, and met the inclusion/exclusion criteria described herein.
Patients were randomized in a 2:1 ratio to the study product or vehicle treatment group, respectively. Patients applied the study product once daily for 12 weeks on the face (chin, left cheek, right cheek, nose, left forehead and right forehead) in a thin layer to provide even distribution, and avoid the eyes, lips, inside the nose, mouth and all mucous membranes.
Patients were admitted into the study after meeting all inclusion/exclusion criteria, including a clinical diagnosis of rosacea and after written informed consent has been obtained. Subjects with severe rosacea who are appropriate for systemic treatment need to be counseled regarding their treatment options by the Principal Investigator. At each visit, a 5-point IGA scale of rosacea; rosacea erythema, and telangiectasia; and inflammatory (papules, pustules) lesion counts were performed and recorded.
The first application of the test product was applied at the investigational site at the end of the Baseline visit (Day 0) under the supervision and instruction of the designated investigational site staff. The investigator performed the Investigator Global Assessment (IGA) and inflammatory lesion (papules and pustules) counts at Screening, Baseline, and Weeks 4, 8, and 12 (end of study) and erythema and telangiectasia assessments at Baseline, and Weeks 4, 8, and 12 (end of study). The evaluator also assessed local application site irritation (dryness, scaling, pruritus, stinging and burning) at Baseline and Weeks 2, 4, 8 and 12 (end of study). At selected investigational site(s), standardized photography of facial rosacea also was performed at Baseline and Week 8 and 12 (end of study).
The absolute change (primary measure of success) and percent change (secondary measure of success) from baseline of inflammatory lesions was derived for each patient at Weeks 2, 4, 8 and 12. The IGA was recorded for each patient at Baseline, Weeks 2, 4, 8 and 12. Weeks 2, 4, 8 and 12 with a patient were considered a success for those visits if the IGA was at least 2 grades less than baseline and are Clear or Almost Clear. Data from two sets of experiments—Drug 01+Vehicle 01 and Drug 02+Vehicle 02—are included herewith for each measurement
The proportions of subjects with a secondary measure of success (defined as change in the mean inflammatory lesion count from Baseline to Weeks 2, 4, 8 and 12) are shown in Tables 2A, 2B, 3A and 3B, and FIGS. 2 and 3.

[3] = test system: patients afflicted with papulopustular rosacea; assay: Cutaneous Safety Assessment (dryness, scaling) and Local Tolerability Assessment (itching, burning/stinging), 12-week study of E-BPO 5% cream; format: in vivo, human; settings: studies described herein
Protocol: Safety was assessed at all visits, and will include monitoring of local adverse experiences, Investigator Cutaneous Safety Assessment rating of dryness and scaling and Local Tolerability Assessment rating of itching and burning/stinging on a scale ranging from 0 (None) to 3 (Severe); patients complete a Patient Reported Outcomes (PRO) questionnaire at Visit 2, 3, 4, 5 and 6 and Rosacea Quality of Life Questionnaire (RosaQoL) at Baseline and Visit 6 or at early termination. Standardized photography of facial rosacea at Visit 2, 3, 4, 5 and 6 was performed at select site(s).
In addition to IGA, at each visit, the following safety measures were recorded: monitoring for any AE (adverse effects) including local and systemic; investigator Cutaneous Safety Assessment rating of erythema, dryness and scaling and Local Tolerability Assessments rating of itching and burning/stinging on a scale ranging from 0 (None) to 3 (Severe).
(§2) The first application of the test product was applied at the investigational site at the end of the Baseline visit (Day 0) under the supervision and instruction of the designated investigational site staff. […] The evaluator also assessed local application site irritation (dryness, scaling, pruritus, stinging and burning) at Baseline and Weeks 2, 4, 8 and 12 (end of study). […]

[4] = test system: patients afflicted with papulopustular rosacea; assay: Investigator Global Assessment (IGA) success, 12-week vehicle-controlled study of E-BPO 5% cream; format: in vivo, human
Protocol: as §1
Patients were randomized in a 2:1 ratio to the study product or vehicle treatment group, respectively. […]
Patients were admitted into the study after meeting all inclusion/exclusion criteria, including a clinical diagnosis of rosacea and after written informed consent has been obtained. […] At each visit, a 5-point IGA scale of rosacea; rosacea erythema, and telangiectasia; and inflammatory (papules, pustules) lesion counts were performed and recorded.
as §2

[5] = after at least 12 weeks of treatment

O=C(OOC(=O)c1ccccc1)c1ccccc1 [BPO, Benzoyl peroxide]
response of lesions [1]: unresponsive | decrease in inflammatory lesions [2, 5]: over 69% | decrease in inflammatory lesions relative to effect of vehicle cream [2, 5]: more than 1.5 × | decrease in inflammatory lesions, on average ([2]; after only 2 weeks of treatment): about 40% | decrease in inflammatory lesions ([2]; in 4 weeks): over 58% | decrease in inflammatory lesions ([2]; in 8 weeks): about 70% | percentage of patients reporting no subcutaneous reactions compared with vehicle [3]: comparable, and for some conditions, surprisingly, higher | success in IGA ([4]; after 2 weeks of BPO-treatment): about 10% | success in IGA ([4]; after only 4 weeks of treatment): about 25%
